{"source": "patent US4999372A", "about": "“New aminochromanol compounds” (ADIR et Compagnie, priority 1988, dated 1991)", "key": {"aorta of the rat [1]": {"tested_on": "aorta of the rat", "experiment": "Relaxation of rat aortic rings contracted by potassium depolarisation (KCl)", "assay_type": "cell-based", "settings": "rat aorta rings without endothelium", "method": "(§1) Male Wistar rats (325-375 g) are anaesthetised i.p. using sodium pentobarbital (30 mg/kg). The thoracic aorta and the mesenteric portal vein are removed. The aorta is dissected into rings 3 mm long and the endothelium is removed mechanically.\n(§2) The organs are placed in a 20 ml thermostatically controlled vessel containing a physiological solution composed of (mM): NaCl 112; KCl 5; KH2 PO4 1; MgSO4 1.2; CaCl2 2.5; NaHCO3 25; glucose 11.5; EDTA 0.1; pH: 7.4; 37° C.; 95% O2 +5% CO2.\n(§3) The initial force applied is 2 g in the case of the aorta and 0.5 g in the case of the portal vein. The variations in force are measured by a STATHAM sensor connected to a transducer amplifier (GOULD) and are monitored continuously on a GOULD 2400 graphic recorder.\n(§4) The experimental protocols are as follows: After a stabilisation period of 90 minutes, the aortic rings are subjected to various tests:\npotassium depolarisation:\nThe preparations are exposed to a 30 mM or 80 mM KCl (and 87 and 37 mM NaCl, respectively) hyperpotassium medium; after 30 minutes' stabilisation of contraction, cumulative concentrations of the product to be tested are added every 15 minutes. The relaxation values obtained allow the IC50 s to be calculated.\n(§5) The products are used in a form dissolved in water or a suitable solvent.\n(§6) The concentrations expressed refer to the final concentrations in terms of base in the isolated organ baths."}, "aorta of the rat [2]": {"tested_on": "aorta of the rat", "experiment": "Reactivity of rat aortic rings to 4-aminopyridine (4 AP)", "assay_type": "cell-based", "settings": "4 AP 5 mM", "method": "as §1, §2, §3, §4\nreactivity to 4-aminopyridine (4 AP)\nThe product to be tested, at a given concentration, or its solvent, is incubated in the normal physiological solution 15 minutes before the addition of the 4 AP (5 mM).\nThe maximum amplitudes of the responses to the 4 AP in the presence of the product or the solvent are compared.\nas §5, §6"}, "[3]": {"tested_on": "spontaneously hypertensive rat (SHR)", "experiment": "Arterial pressure in the conscious spontaneously hypertensive rat (SHR), oral", "assay_type": "in vivo", "method": "The study is carried out on SHR male rats (Charles River) weighing from 260 g to 330 g and aged from 18 to 20 weeks. A polyethylene catheter is positioned at the level of the abdominal aorta and tunnelised at the level of the neck under anaesthesia (ketamine hydrochloride 150 mg/kg intraperitoneally). The animals, placed in movement-restraining cages, are tested in the conscious state at least 48 hours after intervention. The arterial pressure, measured by a STATHAM P23 pressure sensor connected to the abdominal catheter, is registered on a GOULD 2400 recorder. […] The doses administered are expressed in mg/kg of base.\nThe results obtained with a certain number of representative products of the invention and a reference product, CROMAKALIM, are grouped in the following Table. The variations in systolic and diastolic arterial pressure (PAS and PAD) presented at the most significant times after treatment are expressed as percentage variation with respect to the control values."}, "[4]": {"tested_on": "conscious renally hypertensive dog", "experiment": "Arterial pressure in the conscious renally hypertensive dog", "assay_type": "in vivo", "settings": "gastric intubation, 0.1 mg/kg", "method": "Mongrel dogs weighing from 20 to 25 kg are used. A silastic catheter positioned under anaesthesia (sodium pentobarbital 30 mg/kg i.v.) at the level of the abdominal aorta and left over a prolonged period permits the later measurement of the arterial pressure in the conscious animals. Arterial hypertension is induced by a second intervention under anaesthesia consisting in a constriction of the left renal artery using a clip, which reduces its rate of flow by approximately 70%, the left kidney is enveloped in a latex capsule and the contralateral kidney is left in place.\nThe systolic and diastolic arterial pressures (PAS and PAD) are measured using a STATHAM P23 pressure sensor connected to the silastic catheter and linked to a GOULD pressure amplifier. The products are tested on the animals, which have become hypertensive, in the conscious state, at least one week after the second intervention. The arterial pressure is monitored continuously on an ES1000 GOULD recorder until 7 hours have elapsed after the treatment and then until 24 hours have elapsed.\nThe products to be tested are administered via the digestive system, after gastric intubation, in a form dissolved in water or a suitable solvent. The doses administered are expressed in mg of base with respect to body weight.\nThe representative products of the invention were compared with the reference product (CROMAKALIM). The variations in the systolic and diastolic arterial pressures (PAS and PAD), presented at the most significant times after treatment, are expressed as percentage variation with respect to the control values."}, "anaesthetised dog": {"tested_on": "anaesthetised dog", "experiment": "Haemodynamic study in the anaesthetised dog (vascular resistances), i.v.", "assay_type": "in vivo", "method": "A complete haemodynamic study was carried out on mongrel dogs weighing from 25 to 30 kg, which were anaesthetised with sodium pentobarbital 30 mg/kg i.v., intubated and ventilated and subjected to a thoracotomy at the 5th left intercostal space. The measurement of the […] is carried out using electromagnetic rings positioned at the level of the ascending aorta and the circumflex branch of the left coronary artery, respectively, and connected to GOULD SP 2202 electromagnetic flow meters. The aortic pressure is measured by a MILLAR probe introduced via the femoral artery.\nThe total peripheral vascular resistance values (TPR) and the mean coronary vascular resistance values (CVRM) are calculated by the ratio between the mean aortic pressure and the mean cardiac output and the mean coronary output, respectively. The products tested were injected via the femoral vein in a form dissolved in water or a suitable solvent.\nThe evolution of the vascular resistances, expressed as percentage variation with respect to the control values, is presented as a function of time in the following Table."}, "[5]": {"settings": "Rattus norvegicus, 80 mM KCl, read-out: IC50 (M) KCl 80 mM"}}, "note": "Read-outs that look alike come from different tables or passages of the source."}
{"compound": "CC1(C)Oc2ccc(C#N)cc2[C@@H](N2CCCC2=O)[C@@H]1O", "note": "(relative stereo) [CROMAKALIM, reference compound]", "values": [{"measurement": "IC50", "setting": "aorta of the rat [1]; Rattus norvegicus, 30 mM KCl, read-out: IC50 (M) KCl 30 mM", "value": "4.2e-07", "unit": "M"}, {"measurement": "IC50", "setting": "aorta of the rat [1]; [5]", "value": "> 0.0001", "unit": "M"}, {"measurement": "% inhibition of the response to 4AP", "setting": "aorta of the rat [2]; product 10^-5 M", "value": 74, "unit": "%"}, {"measurement": "% inhibition of the response to 4AP", "setting": "aorta of the rat [2]; product 10^-7 M", "value": 13, "unit": "%"}, {"measurement": "Variation (%) of PAD after treatment", "setting": "[3]; 0.3 mg/kg, 1 H", "value": "-26 ± 3", "unit": "%"}, {"measurement": "Variation (%) of PAS after treatment", "setting": "[3]; 0.3 mg/kg, 1 H", "value": "-21 ± 3", "unit": "%"}, {"measurement": "Variation (%) of PAD after treatment", "setting": "[3]; 0.3 mg/kg, 3 H", "value": "-7 ± 5", "unit": "%"}, {"measurement": "Variation (%) of PAS after treatment", "setting": "[3]; 0.3 mg/kg, 3 H", "value": "-5 ± 4", "unit": "%"}, {"measurement": "Variation (%) of PAD after treatment", "setting": "[3]; 0.3 mg/kg, 6 H", "value": "-3 ± 1", "unit": "%"}, {"measurement": "Variation (%) of PAS after treatment", "setting": "[3]; 0.3 mg/kg, 6 H", "value": "-1 ± 2", "unit": "%"}, {"measurement": "Variation (%) of PAD after treatment", "setting": "[3]; 0.3 mg/kg, 30 min", "value": "-34 ± 2", "unit": "%"}, {"measurement": "Variation (%) of PAS after treatment", "setting": "[3]; 0.3 mg/kg, 30 min", "value": "-29 ± 2", "unit": "%"}, {"measurement": "Variation (%) of PAD after treatment", "setting": "[3]; 1.0 mg/kg, 1 H", "value": "-33 ± 3", "unit": "%"}, {"measurement": "Variation (%) of PAS after treatment", "setting": "[3]; 1.0 mg/kg, 1 H", "value": "-23 ± 4", "unit": "%"}, {"measurement": "Variation (%) of PAD after treatment", "setting": "[3]; 1.0 mg/kg, 3 H", "value": "-25 ± 4", "unit": "%"}, {"measurement": "Variation (%) of PAS after treatment", "setting": "[3]; 1.0 mg/kg, 3 H", "value": "-19 ± 3", "unit": "%"}, {"measurement": "Variation (%) of PAD after treatment", "setting": "[3]; 1.0 mg/kg, 6 H", "value": "-20 ± 2", "unit": "%"}, {"measurement": "Variation (%) of PAS after treatment", "setting": "[3]; 1.0 mg/kg, 6 H", "value": "-15 ± 2", "unit": "%"}, {"measurement": "Variation (%) of PAD after treatment", "setting": "[3]; 1.0 mg/kg, 30 min", "value": "-44 ± 4", "unit": "%"}, {"measurement": "Variation (%) of PAS after treatment", "setting": "[3]; 1.0 mg/kg, 30 min", "value": "-34 ± 5", "unit": "%"}, {"measurement": "Variation (%) of PAD after treatment", "setting": "[4]; 1 H", "value": -23, "unit": "%"}, {"measurement": "Variation (%) of PAS after treatment", "setting": "[4]; 1 H", "value": -26, "unit": "%"}, {"measurement": "Variation (%) of PAD after treatment", "setting": "[4]; 3 H", "value": -9, "unit": "%"}, {"measurement": "Variation (%) of PAS after treatment", "setting": "[4]; 3 H", "value": -9, "unit": "%"}, {"measurement": "Variation (%) of PAD after treatment", "setting": "[4]; 7 H", "value": -5, "unit": "%"}, {"measurement": "Variation (%) of PAS after treatment", "setting": "[4]; 7 H", "value": "+2%"}, {"measurement": "Variation (%) of PAD after treatment", "setting": "[4]; 24 H", "value": "+18%"}, {"measurement": "Variation (%) of PAS after treatment", "setting": "[4]; 24 H", "value": "+9%"}, {"measurement": "Variation (%) of PAD after treatment", "setting": "[4]; 30 min", "value": -46, "unit": "%"}, {"measurement": "Variation (%) of PAS after treatment", "setting": "[4]; 30 min", "value": -50, "unit": "%"}, {"measurement": "Variation (%) of CVRM after treatment", "setting": "anaesthetised dog; 10 μg/kg, 1 min", "value": -69.0, "unit": "%"}, {"measurement": "Variation (%) of TPR after treatment", "setting": "anaesthetised dog; 10 μg/kg, 1 min", "value": -26.8, "unit": "%"}, {"measurement": "Variation (%) of CVRM after treatment", "setting": "anaesthetised dog; 10 μg/kg, 10 min", "value": -38.1, "unit": "%"}, {"measurement": "Variation (%) of TPR after treatment", "setting": "anaesthetised dog; 10 μg/kg, 10 min", "value": -15.5, "unit": "%"}, {"measurement": "Variation (%) of CVRM after treatment", "setting": "anaesthetised dog; 10 μg/kg, 30 min", "value": -27.4, "unit": "%"}, {"measurement": "Variation (%) of TPR after treatment", "setting": "anaesthetised dog; 10 μg/kg, 30 min", "value": -7.8, "unit": "%"}]}
{"compound": "CC1(C)Oc2ccc(C#N)cc2C(N2C(=O)CC[C@H]2CO)C1O", "note": "(single isomer, unassigned) [Example 1 form A, 3R,4S- or 3S,4R-trans-2,2-dimethyl-3-hydroxy-4-(2-oxo-5S-hydroxymethyl-1-pyrrolidinyl)-6-cyanochroman]", "values": [{"measurement": "IC50", "setting": "aorta of the rat [1]; [5]", "value": "> 0.0001", "unit": "M"}, {"measurement": "IC50", "setting": "aorta of the rat [1]; 30 mM KCl, listed as Ex. 1 Form A, read-out: IC50 (M) KCl 30 mM", "value": "7.7e-06", "unit": "M"}, {"measurement": "% inhibition of the response to 4AP", "setting": "aorta of the rat [2]; product 10^-5 M, listed as Ex. 1 Form A", "value": 35, "unit": "%"}, {"measurement": "Variation (%) of CVRM after treatment", "setting": "anaesthetised dog; 300 μg/kg, 1 min", "value": -81.5, "unit": "%"}, {"measurement": "Variation (%) of TPR after treatment", "setting": "anaesthetised dog; 300 μg/kg, 1 min", "value": -41.9, "unit": "%"}, {"measurement": "Variation (%) of CVRM after treatment", "setting": "anaesthetised dog; 300 μg/kg, 10 min", "value": -50.3, "unit": "%"}, {"measurement": "Variation (%) of TPR after treatment", "setting": "anaesthetised dog; 300 μg/kg, 10 min", "value": -17.2, "unit": "%"}, {"measurement": "Variation (%) of CVRM after treatment", "setting": "anaesthetised dog; 300 μg/kg, 30 min", "value": -34.9, "unit": "%"}, {"measurement": "Variation (%) of TPR after treatment", "setting": "anaesthetised dog; 300 μg/kg, 30 min", "value": -12.9, "unit": "%"}]}
